This assay addresses N-formyl peptide receptor 2 (Homo sapiens) (UniProt P25090). The experiment in a line: FPRL1 binding inhibitor potency, dose response, cell-based, FPR counter-screen, fluorescent ligand (AID 520). Particulars: FPRL1-expressing cells, fluorescent ligand binding inhibition; for pKi: measured here: FPRL1 binding Ki. Background: A counterscreen serves to expose hits that act by an unwanted route or on another target.

Structures are written as SMILES. pKi: −log10 of the molar value. Activity calls are given as the source filed them. The rule behind the calls is not given here.

As usually defined, the IC50 is the midpoint of a concentration-inhibition curve. Usually pKi stands for the Ki on a negative log10 scale, so that one unit is a factor of ten.

Chain of N-formyl peptide receptor 2 (Homo sapiens) (P25090 whole entry, looked up): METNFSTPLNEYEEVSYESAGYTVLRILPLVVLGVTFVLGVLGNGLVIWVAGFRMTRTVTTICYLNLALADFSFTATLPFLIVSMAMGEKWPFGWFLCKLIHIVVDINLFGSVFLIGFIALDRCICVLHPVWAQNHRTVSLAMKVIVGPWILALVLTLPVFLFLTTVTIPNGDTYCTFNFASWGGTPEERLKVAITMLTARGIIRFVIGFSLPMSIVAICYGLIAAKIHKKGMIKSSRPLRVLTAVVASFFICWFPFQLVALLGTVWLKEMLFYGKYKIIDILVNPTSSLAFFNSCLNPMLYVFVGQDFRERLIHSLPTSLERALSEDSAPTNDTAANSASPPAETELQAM

For `Cc1nc(C)c(C(=O)C2=C(O)C(=O)N(CCCn3ccnc3)C2c2ccc(Cl)cc2)s1` (stereo not given), the IC50 was > 66.7 µM (inactive) and the pKi is less than 4.39.

In the case of `CC1CCN(c2nc(-c3ccccc3)c(C#N)c(=O)[nH]2)CC1`, the negative-log Ki (pKi) was less than 4.39.

For the compound `CCN1C(=O)/C(=C2\SC(=S)N(CCCOC)C2=O)c2ccccc21`, the pKi was less than 4.39.

In turn, `N#Cc1c(C(F)(F)F)cc(-c2ccccc2)nc1SCc1nc(N)nc(N2CCOCC2)n1` gave a pKi of less than 4.39.

`COCCN1C(=O)C(O)=C(C(=O)c2cccs2)C1c1ccccc1` (stereo not given): the IC50 is > 66.7 µM (inactive) and the negative logarithm of the Ki (pKi) was less than 4.39.

On to `O=C(NC1CCCC1)C1CC1c1ccccc1` (stereo not given), for which the pKi was less than 4.39.

Turning to `COc1cccc(OC)c1/C(O)=C(\C#N)c1nc2ccccc2[nH]1`, the IC50 was > 66.7 µM (inactive) and the negative logarithm of the Ki (pKi) was less than 4.39.

Consider `Cc1ccc(C2/C(=C(/O)c3ccc(Br)cc3)C(=O)C(=O)N2Cc2ccco2)o1` (stereo not given), for which the IC50 was > 66.7 µM (inactive) and the pKi was less than 4.39.

With `CN1C(=O)/C(=C2\SC(=S)N(C(CCC(=O)O)C(=O)O)C2=O)c2ccccc21` (stereo not given), the negative-log Ki (pKi) was less than 4.39.

Compound `COCCN1Cc2cccc(C(=O)NCc3ccc4c(c3)OCO4)c2C1=O` gave a negative logarithm of the Ki (pKi) of less than 4.39.

With `COc1cc(C2C(C(=O)c3ccc(C)o3)=C(O)C(=O)N2Cc2cccnc2)ccc1O` (stereo not given), the IC50 was > 66.7 µM (inactive) and the pKi was less than 4.39.

`COc1ccc(OC)c(C2C(C(=O)c3cccs3)=C(O)C(=O)N2c2cc(C)on2)c1` (stereo not given): the IC50 is > 66.7 µM (inactive) and the pKi is less than 4.39.

Turning to `Cc1nc2c(C#N)c(C)[nH]n2c(=O)c1Cc1ccccc1`, the pKi was less than 4.39.

As to `CCC(CC)C(=O)Nc1c2cnn(-c3ccccc3)c2nc(=O)n1-c1ccccc1`, the pKi is less than 4.39.

For `CC1=C(C#N)C(c2ccc3ncccc3c2)C(C#N)=C(C)N1`, the IC50 was > 66.7 µM (inactive) and the pKi is less than 4.39.

As to `O=c1cc(N2CCc3ccccc32)[nH]c(=O)n1Cc1ccc(F)cc1`, the pKi is less than 4.39.

Turning to `COCCCN1C(=O)C(=O)/C(=C(/O)c2ccc3c(c2)CC(C)O3)C1c1cccnc1` (stereo not given), the IC50 was > 66.7 µM (inactive) and the negative logarithm of the Ki (pKi) is less than 4.39.

On to `COc1cccc(/C(O)=C2/C(=O)C(=O)N(Cc3cccnc3)C2c2ccco2)c1` (stereo not given), for which the IC50 is > 66.7 µM (inactive) and the negative logarithm of the Ki (pKi) is less than 4.39.

With `COc1ccc(C2/C(=C(/O)c3ccccc3)C(=O)C(=O)N2CC(C)O)c(OC)c1` (stereo not given), the IC50 is > 66.7 µM (inactive) and the negative logarithm of the Ki (pKi) is less than 4.39.

`COc1ccc(-c2nc(-c3ccc(Br)o3)no2)cc1OC` showed a pKi of less than 4.39.

The compound `COc1ccc2cnn(-c3ccccc3)c(=O)c2c1OC` showed a pKi of less than 4.39.

`COc1ccc(-c2nc(-c3ccc(NC(=O)c4ccc(Br)o4)cc3)no2)cc1OC` gave a negative logarithm of the Ki (pKi) of less than 4.39.

Consider `COc1ccccc1C1/C(=C(/O)c2ccccc2)C(=O)C(=O)N1CCO` (stereo not given), for which the IC50 was > 66.7 µM (inactive) and the pKi is less than 4.39.

`O=C(Cn1c(=O)oc2ccccc21)N1CCN(c2ccccc2)CC1`: the pKi was less than 4.39.

`CCOC(=O)Cc1cc(=O)n2[nH]c(C)c(-c3ccc(Cl)cc3)c2n1` gave a pKi of less than 4.39.

With `COCCCN1C(=O)C(O)=C(C(=O)c2ccco2)C1c1ccc(Br)cc1` (stereo not given), the IC50 is > 66.7 µM (inactive) and the negative-log Ki (pKi) is less than 4.39.

Regarding `Cc1[nH]n2c(=O)c3c(nc2c1-c1cccc2ccccc12)CCC3`, the pKi is less than 4.39.

Turning to `N[C@@H](Cc1ccc(O)c(I)c1)C(=O)O`, the pKi was less than 4.39.

The values are drawn from PubChem BioAssay AID520 (NMMLSC, 2006).
